In patent EP4610269A1, “UROKINASE PLASMINOGEN ACTIVATOR SURFACE RECEPTOR (UPAR) LIGANDS FOR DIAGNOSTIC OR THERAPEUTIC USE” (3B Pharmaceuticals GmbH, priority 2024, dated 2025):
*1 amine or outer side, *2 acyl side, *3 side chain or, on linkers, in order; H or OH if unused. Where a SMILES comes first, the peptide text is derived from it. Bridges are numbered along the chain shown (N, C = ends). [ ]: non-standard residue; d: D form. The star is where a group is joined. Acetyl(4-DOTA-piperazinyl) = O=C(O)CN1CCN(CC(=O)O)CCN(CC(=O)N2CCN(CC(=O)*)CC2)CCN(CC(=O)O)CC1; DOTA = O=C(O)CN1CCN(CC(=O)O)CCN(CC(=O)*)CCN(CC(=O)O)CC1; Phe(4-SO3H) = N[C@@H](Cc1ccc(S(=O)(=O)O)cc1)C(=O)O; Pro(trans-4-F) = O=C(O)[C@@H]1C[C@@H](F)CN1; Phe(4-Cl) = N[C@@H](Cc1ccc(Cl)cc1)C(=O)O; Pro(cis-4-F) = O=C(O)[C@@H]1C[C@H](F)CN1; Dopa = N[C@@H](Cc1ccc(O)c(O)c1)C(=O)O; Cyclopentanecarbonyl = O=C(C1CCCC1)*; Hyp = O=C(O)[C@@H]1C[C@@H](O)CN1; 3Pal = N[C@@H](Cc1cccnc1)C(=O)O; Pentanoyl(4-Me) = CC(C)CCC(=O)*; Cit = NC(=O)NCCC[C@H](N)C(=O)O; Butoxycarbonyl = CCCCOC(=O)*; Phg = N[C@H](C(=O)O)c1ccccc1; Tle = CC(C)(C)[C@H](N)C(=O)O; hCys = N[C@@H](CCS)C(=O)O; Nle = CCCC[C@H](N)C(=O)O; dNMeA = CN[C@H](C)C(=O)O; Nva = CCC[C@H](N)C(=O)O; Hexanoyl = CCCCCC(=O)*; Pentanoyl = CCCCC(=O)*; CO = O=C([*:1])[*:2]; X7 = CCCOCC(=O)*; NHPr = CCCN*

Key:
[1] = biological target: T1, uPAR-expressing HEC-265 human endometrial adenocarcinoma cells (Homo sapiens, UniProt Q03405); test: Competitive FACS binding assay; details: pIC50 category of FACS binding
T1 construct: Cell surface uPAR-expressing HEC-265 human endometrial adenocarcinoma cells; host or cells: HEC-265
T1 sequence (Q03405 23-335): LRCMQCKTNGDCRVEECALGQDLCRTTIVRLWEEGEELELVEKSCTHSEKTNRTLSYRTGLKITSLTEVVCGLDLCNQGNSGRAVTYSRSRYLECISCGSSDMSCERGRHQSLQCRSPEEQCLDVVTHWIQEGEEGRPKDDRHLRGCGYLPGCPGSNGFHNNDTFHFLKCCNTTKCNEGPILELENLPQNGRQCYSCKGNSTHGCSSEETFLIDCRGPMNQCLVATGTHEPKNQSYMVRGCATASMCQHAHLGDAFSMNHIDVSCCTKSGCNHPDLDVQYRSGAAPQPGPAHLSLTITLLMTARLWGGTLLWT
Outline: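 HEC-265 cells incubated 1 h at 4 °C with 10 nM biotinylated uPAR peptide tracer plus increasing test compound, then stained with APC-streptavidin on ice. Median APC fluorescence by flow cytometry; 4PL fit gives pIC50.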

human uPAR (uPAR-Fc) = biological target: T2, human uPAR (uPAR-Fc) (Homo sapiens, UniProt Q03405); test: Surface plasmon resonance (SPR) assay, single cycle kinetics; assay type: binding; details: pKD category for uPAR SPR activity assay; uPAR-Fc on Protein A-Chip, 25°C; read-out: pKD CAT (converted)
T2 construct: comprising amino acids Leu23-Arg303 according to UniProt entry Q03405.1; purchased R&D Systems 10378-UK-100
T2 sequence (Q03405 23-303): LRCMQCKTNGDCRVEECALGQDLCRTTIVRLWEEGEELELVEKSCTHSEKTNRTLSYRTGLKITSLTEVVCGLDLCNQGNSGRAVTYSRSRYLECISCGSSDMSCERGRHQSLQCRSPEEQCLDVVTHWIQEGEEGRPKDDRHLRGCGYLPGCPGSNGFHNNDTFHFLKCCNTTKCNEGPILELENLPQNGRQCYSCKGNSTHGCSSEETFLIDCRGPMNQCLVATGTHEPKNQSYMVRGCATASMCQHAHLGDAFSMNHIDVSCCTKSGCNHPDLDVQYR
Outline: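 uPAR-Fc (Leu23-Arg303 extracellular domains, human IgG1 Fc) captured on Protein A chip to ~2000 RU; single-cycle kinetics at 25°C in HEPES running buffer pH 7.4 with 0.1% DMSO. KD from double-referenced sensorgrams fitted to 1:1 Langmuir model, reported as pKD.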

| SMILES | IC50 [1] | Kd (human uPAR (uPAR-Fc)) |
| --- | --- | --- |
| CCCC[C@@H]1NC(=O)[C@H](CCCNC(=N)N)NC(=O)[C@@H](NC(=O)[C@H](CC(C)C)NC(=O)[C@H](CC(=O)O)NC(C)=O)CSSC[C@@H](C(N)=O)NC(=O)[C@H](CC(C)C)NC(=O)[C@H]([C@@H](C)CC)NC(=O)[C@H](C)NC(=O)[C@@H]2CCCN2C(=O)[C@H](Cc2ccccc2)NC(=O)[C@@H](Cc2ccc(O)cc2)NC1=O [UPAR-198, Ac-Asp-Leu-[Cys-Arg-Nle-tyr-Phe-Pro-Ala-Ile-Leu-Cys]-NH2] (Ac-DLCR[Nle][dY]FPAILC-NH2; disulfide 3-12) | ≥ 126 nM | > 100 nM |
| CCCCOC(=O)N[C@H]1CSSC[C@@H](C(N)=O)NC(=O)[C@H](CCC)NC(=O)[C@H]([C@@H](C)CC)NC(=O)[C@@H]2C[C@@H](O)CN2C(=O)[C@@H]2C[C@H](F)CN2C(=O)[C@H](Cc2ccccc2)NC(=O)[C@H](Cc2ccc(O)c(O)c2)NC(=O)[C@H](CCCCNC(=O)CN2CCN(C(=O)CN3CCN(CC(=O)O)CCN(CC(=O)O)CCN(CC(=O)O)CC3)CC2)NC(=O)[C@H]([C@@H](C)O)NC1=O [UPAR-199, Butoc-[Cys-Thr-Lys(DOTA-PPAc)-Dopa-Phe-4Cfp-Hyp-Ile-Nva-Cys]-NH2] (Butoxycarbonyl-CTK(Acetyl(4-DOTA-piperazinyl))[Dopa]F[Pro(cis-4-F)][Hyp]I[Nva]C-NH2; disulfide 1-10) | ≤ 10 nM | < 1.58 nM |
| CC(C)CCC(=O)N[C@H]1CSSC[C@@H](C(N)=O)NC(=O)[C@H](CC(C)C)NC(=O)[C@H](C(C)(C)C)NC(=O)[C@@H](C)NC(=O)[C@@H]2CCCN2C(=O)[C@H](Cc2ccccc2)NC(=O)[C@H](Cc2ccc(O)cc2)NC(=O)[C@H](CCC(N)=O)NC(=O)[C@H](CCCNC(N)=O)NC1=O [UPAR-201, iHex-[Cys-Cit-Gln-Tyr-Phe-Pro-ala-Tle-Leu-Cys]-NH2] ({Pentanoyl(4-Me)}-C[Cit]QYFP[dA][Tle]LC-NH2; disulfide 1-10) | 39.8 to 100 nM | 10 to 100 nM |
| CCCCCC(=O)N[C@@H](CO)C(=O)N[C@@H](CC(C)C)C(=O)N[C@H]1CSSC[C@@H](C(N)=O)NC(=O)[C@H](CC(C)C)NC(=O)[C@H]([C@@H](C)CC)NC(=O)[C@H](C)NC(=O)[C@@H]2CCCN2C(=O)[C@H](Cc2ccccc2)NC(=O)[C@H](Cc2ccccc2)NC(=O)[C@H](CCC(N)=O)NC(=O)[C@H](CC(=O)O)NC1=O [UPAR-202, Hex-Ser-Leu-[Cys-Asp-Gln-Phe-Phe-Pro-Ala-Ile-Leu-Cys]-NH2] (Hexanoyl-SLCDQFFPAILC-NH2; disulfide 3-12) | ≤ 10 nM | < 1.58 nM |
| CCCCC(=O)N[C@H]1CSSC[C@@H](C(N)=O)NC(=O)[C@H](CCC)NC(=O)[C@H]([C@@H](C)CC)NC(=O)[C@@H]2C[C@@H](O)CN2C(=O)[C@@H]2CCCN2C(=O)[C@H](c2ccccc2)NC(=O)[C@H](Cc2ccc(O)cc2)NC(=O)[C@H](CCC(N)=O)NC(=O)[C@H](CCCNC(=N)N)NC1=O [UPAR-203, Pent-[Cys-Arg-Gln-Tyr-Phg-Pro-Hyp-Ile-Nva-Cys]-NH2] (Pentanoyl-CRQY[Phg]P[Hyp]I[Nva]C-NH2; disulfide 1-10) | ≥ 126 nM | 10 to 100 nM |
| CCCCC(=O)N[C@H]1CSSC[C@@H](C(N)=O)NC(=O)[C@H](CCC)NC(=O)[C@H](Cc2ccc(Cl)cc2)NC(=O)[C@@H]2C[C@@H](O)CN2C(=O)[C@@H]2CCCN2C(=O)[C@H](Cc2ccccc2)NC(=O)[C@H](Cc2ccc(O)cc2)NC(=O)[C@H](CCC(N)=O)NC(=O)[C@H](CCCNC(=N)N)NC1=O [UPAR-204, Pent-[Cys-Arg-Gln-Tyr-Phe-Pro-Hyp-Pcf-Nva-Cys]-NH2] (Pentanoyl-CRQYFP[Hyp][Phe(4-Cl)][Nva]C-NH2; disulfide 1-10) | ≤ 10 nM | < 1.58 nM |
| CCCCC(=O)N[C@@H](C)C(=O)N[C@@H](CCCNC(N)=O)C(=O)N[C@@H](CCC(N)=O)C(=O)N[C@@H](Cc1ccc(O)cc1)C(=O)N[C@@H](Cc1ccccc1)C(=O)N1CCC[C@H]1C(=O)N1C[C@H](O)C[C@H]1C(=O)N[C@H](C(=O)N[C@@H](CCC)C(=O)N[C@@H](CSC)C(N)=O)[C@@H](C)CC [UPAR-205, Pent-Ala-Cit-Gln-Tyr-Phe-Pro-Hyp-Ile-Nva-Smc-NH2] (Pentanoyl-A[Cit]QYFP[Hyp]I[Nva]C(Me)-NH2) | ≥ 126 nM | > 100 nM |
| CCCCC(=O)N[C@H]1CSSC[C@@H](C(=O)NCC(N)=O)NC(=O)[C@H](CCC)NC(=O)[C@H]([C@@H](C)CC)NC(=O)[C@@H]2C[C@@H](O)CN2C(=O)[C@@H]2CCCN2C(=O)[C@H](Cc2ccccc2)NC(=O)[C@H](Cc2ccc(O)cc2)NC(=O)[C@H](CCC(N)=O)NC(=O)[C@H](CCCNC(N)=O)NC1=O [UPAR-206, Pent-[Cys-Cit-Gln-Tyr-Phe-Pro-Hyp-Ile-Nva-Cys]-Gly-NH2] (Pentanoyl-C[Cit]QYFP[Hyp]I[Nva]CG-NH2; disulfide 1-10) | 12.6 to 31.6 nM | 1.58 to 10 nM |
| CCCCC(=O)N[C@H]1CSSC[C@@H](C(N)=O)NC(=O)[C@H](CCC)NC(=O)[C@H]([C@@H](C)CC)NC(=O)[C@@H]2C[C@@H](F)CN2C(=O)[C@@H]2CCCN2C(=O)[C@H](Cc2cccnc2)NC(=O)[C@H](Cc2ccc(O)cc2)NC(=O)[C@H](CCCCNC(=O)CN2CCN(CC(=O)O)CCN(CC(=O)O)CCN(CC(=O)O)CC2)NC(=O)[C@H](CCCNC(N)=O)NC1=O [UPAR-207, Pent-[Cys-Cit-Lys(DOTA)-Tyr-Mpa-Pro-4Tfp-Ile-Nva-Cys]-NH2] (Pentanoyl-C[Cit]K(DOTA)Y[3Pal]P[Pro(trans-4-F)]I[Nva]C-NH2; disulfide 1-10) | ≤ 10 nM | 1.58 to 10 nM |
| CC[C@H](C)[C@@H]1NC(=O)[C@@H](C)NC(=O)[C@@H]2CCCN2C(=O)[C@H](Cc2ccccc2)NC(=O)[C@H](Cc2ccc(O)cc2)NC(=O)[C@H](CCC(N)=O)NC(=O)[C@H](CCCNC(N)=O)NC(=O)[C@@H](NC(=O)C2CCCC2)CSSC[C@@H](C(N)=O)NC(=O)[C@H](CC(C)C)NC1=O [UPAR-208, Cp-[Cys-Cit-Gln-Tyr-Phe-Pro-ala-Ile-Leu-Cys]-NH2] (Cyclopentanecarbonyl-C[Cit]QYFP[dA]ILC-NH2; disulfide 1-10) | ≤ 10 nM | < 1.58 nM |
| CCCCC(=O)N[C@H]1CSSC[C@@H](C(N)=O)NC(=O)[C@H](CCC)NC(=O)[C@H]([C@@H](C)CC)NC(=O)[C@@H]2C[C@@H](O)CN2C(=O)[C@@H]2CCCN2C(=O)[C@H](Cc2ccccc2)NC(=O)[C@H](Cc2ccc(S(=O)(=O)O)cc2)NC(=O)[C@H](CCCCNC(=O)CN2CCN(CC(=O)O)CCN(CC(=O)O)CCN(CC(=O)O)CC2)NC(=O)[C@H](CCCNC(N)=O)NC1=O [UPAR-209, Pent-[Cys-Cit-Lys(DOTA)-Fso-Phe-Pro-Hyp-Ile-Nva-Cys]-NH2] (Pentanoyl-C[Cit]K(DOTA)[Phe(4-SO3H)]FP[Hyp]I[Nva]C-NH2; disulfide 1-10) | ≤ 10 nM | 1.58 to 10 nM |
| CCCNC(=O)N[C@H]1CSSC[C@@H](C(N)=O)NC(=O)[C@H](CCC)NC(=O)[C@H]([C@@H](C)CC)NC(=O)[C@@H]2C[C@@H](O)CN2C(=O)[C@@H]2CCCN2C(=O)[C@H](Cc2ccccc2)NC(=O)[C@H](Cc2ccc(O)cc2)NC(=O)[C@H](CCCCNC(=O)CN2CCN(CC(=O)O)CCN(CC(=O)O)CCN(CC(=O)O)CC2)NC(=O)[C@H](CCCNC(N)=O)NC1=O [UPAR-210, PrCAyl-[Cys-Cit-Lys(DOTA)-Tyr-Phe-Pro-Hyp-Ile-Nva-Cys]-NH2] ({NHPr-CO}-C[Cit]K(DOTA)YFP[Hyp]I[Nva]C-NH2; disulfide 1-10) | ≤ 10 nM | < 1.58 nM |
| CCCCC(=O)N[C@H]1CSSC[C@@H](C(N)=O)NC(=O)[C@H](CCC)NC(=O)[C@H]([C@@H](C)CC)NC(=O)[C@@H]2C[C@@H](O)CN2C(=O)[C@@H](C)N(C)C(=O)[C@H](Cc2ccccc2)NC(=O)[C@H](Cc2ccc(O)cc2)NC(=O)[C@H](CCC(N)=O)NC(=O)[C@H](CCCNC(=N)N)NC1=O [UPAR-211, Pent-[Cys-Arg-Gln-Tyr-Phe-nma-Hyp-Ile-Nva-Cys]-NH2] (Pentanoyl-CRQYF[dNMeA][Hyp]I[Nva]C-NH2; disulfide 1-10) | ≥ 126 nM | > 100 nM |
| CCCOCC(=O)N[C@H]1CSSC[C@@H](C(N)=O)NC(=O)[C@H](CC(C)C)NC(=O)[C@H]([C@@H](C)CC)NC(=O)[C@@H](C)NC(=O)[C@@H]2CCCN2C(=O)[C@H](Cc2ccccc2)NC(=O)[C@H](Cc2ccc(O)cc2)NC(=O)[C@H](CCC(N)=O)NC(=O)[C@H](CCCNC(N)=O)NC1=O [UPAR-212, PrOAc-[Cys-Cit-Gln-Tyr-Phe-Pro-ala-Ile-Leu-Cys]-NH2] (X7-C[Cit]QYFP[dA]ILC-NH2; disulfide 1-10) | 12.6 to 31.6 nM | 10 to 100 nM |
| CCCCC(=O)N[C@H]1CSSCC[C@@H](C(N)=O)NC(=O)[C@H](CCC)NC(=O)[C@H]([C@@H](C)CC)NC(=O)[C@@H]2C[C@@H](O)CN2C(=O)[C@@H]2CCCN2C(=O)[C@H](Cc2ccccc2)NC(=O)[C@H](Cc2ccc(O)cc2)NC(=O)[C@H](CCC(N)=O)NC(=O)[C@H](CCCNC(=N)N)NC1=O [UPAR-213, Pent-[Cys-Arg-Gln-Tyr-Phe-Pro-Hyp-Ile-Nva-Hcy]-NH2] (Pentanoyl-CRQYFP[Hyp]I[Nva][hCys]-NH2; disulfide 1-10) | ≤ 10 nM | 1.58 to 10 nM |
